Common to all, as to format: cell-based
Experiment [1] deals with E. coli strain MCH164pMAL-marAB. Briefly: MIC complementation test, MCH164pMAL-marAB. To be noted: Escherichia coli, MCH164PMALMARAB
Experiment [2] relates to E. coli strain MCH164pMAL-marB. Briefly: MIC complementation test, MCH164pMAL-marB. To be noted: Escherichia coli, MCH164PMALMARB
Experiment [3] relates to E. coli strain AG102 (Mar mutant). Nature of the experiment: MIC complementation test, AG102 (Mar mutant). To be noted: Escherichia coli.
Experiment [4] relates to E. coli strain MCH164pMAL-marA. Briefly: MIC complementation test, MCH164pMAL-marA. To be noted: Escherichia coli, MCH164PMALMARA
In experiment [5] the test system is E. coli strain MCH164pMAK-Region II. Briefly: MIC complementation test, MCH164pMAK-Region II. To be noted: Escherichia coli.
The test system of experiment [6] is E. coli strain MCH164PHH193-SEQ ID NO:1. Briefly: MIC complementation test, MCH164PHH193-SEQ ID NO:1. To be noted: Escherichia coli.

In brackets after ≈: the same amount, converted by molar mass.

In the case of `CCn1cc(C(=O)O)c(=O)c2ccc(C)nc21` [nal, nalidixic acid], the minimal inhibitory concentration (MIC) (in general, the lowest concentration found to suppress growth) came out at 6.3 µg/mL (≈ 27.1 µM) in experiment [1]; 2.1 µg/mL (≈ 9.04 µM) in experiment [2]; 14.5 µg/mL (≈ 62.4 µM) in experiment [3]; 5.3 µg/mL (≈ 22.8 µM) in experiment [4]; 6.8 µg/mL (≈ 29.3 µM) in experiment [5]; 13.6 µg/mL (≈ 58.6 µM) in experiment [6].
On to `O=C(N[C@H](CO)[C@H](O)c1ccc([N+](=O)[O-])cc1)C(Cl)Cl` [clm, chloramphenicol], for which the minimum inhibitory concentration (MIC) is 7.2 µg/mL (≈ 22.3 µM) in experiment [1], 1 µg/mL (≈ 3.09 µM) in experiment [2], over 25 µg/mL in experiment [3] and 4.9 µg/mL (≈ 15.2 µM) in experiment [4].
Consider `CN(C)[C@@H]1C(O)=C(C(N)=O)C(=O)[C@@]2(O)C(O)=C3C(=O)c4c(O)cccc4[C@@](C)(O)[C@H]3C[C@@H]12` [Tet, tetracycline], for which the minimum inhibitory concentration (MIC) in experiment [1] was 4.7 µg/mL (≈ 10.6 µM); in experiment [2], 2.1 µg/mL (≈ 4.73 µM); in experiment [3], 13.8 µg/mL (≈ 31.1 µM); in experiment [4], 3.4 µg/mL (≈ 7.65 µM); in experiment [5], 4.7 µg/mL (≈ 10.6 µM); in experiment [6], 13.1 µg/mL (≈ 29.5 µM).

Values taken from patent publication US6391545B1 (priority 1992, dated 2002).
